Experimental data published in publication PMC11997999, “Uncovering α-Selectivity for Liver X Receptor Agonists for Lipotoxic Cancer Therapies” (Journal of Medicinal Chemistry, 2025).
Like-named read-outs stand apart in the source and are kept apart here.

Experiments:
LXRβ = biological target: T1, LXRβ (Homo sapiens, UniProt P55055); test: LXRβ-specific LXRE-GFP reporter assay in Hep3B cells (NR1H3 knockout); format: cell-based; conditions: 48h of treatment, GFP by FACS
T1 construct: To measure the activity of the remaining isoform under treatment; endogenous in cells; host or cells: Hep3B (NR1H3 knockout, LXRE-GFP reporter)
T1 sequence (P55055 1-460): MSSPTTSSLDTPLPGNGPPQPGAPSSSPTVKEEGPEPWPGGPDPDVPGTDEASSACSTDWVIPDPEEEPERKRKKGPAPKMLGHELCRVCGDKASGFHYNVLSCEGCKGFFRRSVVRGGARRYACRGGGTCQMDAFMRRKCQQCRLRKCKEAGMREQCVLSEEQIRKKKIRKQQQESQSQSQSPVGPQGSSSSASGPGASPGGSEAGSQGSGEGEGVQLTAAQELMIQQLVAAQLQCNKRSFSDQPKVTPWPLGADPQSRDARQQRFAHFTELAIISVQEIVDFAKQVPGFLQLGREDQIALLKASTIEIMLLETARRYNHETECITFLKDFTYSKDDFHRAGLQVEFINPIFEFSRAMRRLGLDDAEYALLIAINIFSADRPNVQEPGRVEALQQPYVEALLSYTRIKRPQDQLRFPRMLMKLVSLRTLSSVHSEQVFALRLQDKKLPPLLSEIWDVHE

LXRα LBD (GST) = biological target: T2, LXRα LBD (GST) (Homo sapiens, UniProt Q13133); test: Time-resolved LXR FRET assay (LanthaScreen TR-FRET LXRα Coactivator Assay Kit); format: biochemical
T2 construct: 5 nM LXRα LBD (GST); 10 nM LXRβ LBD (GST); purchased ThermoFisher Scientific PV4655
T2 sequence (Q13133 209-447 limits assumed): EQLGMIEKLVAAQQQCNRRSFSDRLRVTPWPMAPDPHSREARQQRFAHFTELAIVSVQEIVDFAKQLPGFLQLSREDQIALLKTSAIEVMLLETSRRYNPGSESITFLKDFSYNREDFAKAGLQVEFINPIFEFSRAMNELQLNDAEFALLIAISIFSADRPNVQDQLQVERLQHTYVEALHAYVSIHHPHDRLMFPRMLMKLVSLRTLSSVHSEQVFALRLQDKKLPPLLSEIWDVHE
Method: (§1) The biochemical TR-FRET assays were performed using the LanthaScreen TR-FRET LXRα Coactivator Assay Kit, goat (ThermoFisher Scientific, PV4655), and the LanthaScreen TR-FRET LXRβ assay kit, goat (ThermoFisher Scientific, PV4658), according to the manufacturer’s instructions using the following concentrations: 5 nM LXRα LBD (GST); 10 nM LXRβ LBD (GST); 500 nM fluorescein-TRAP220/DRIP-2; 200 nM fluorescein-D22; 10 nM Tb anti-GST antibody. The TR-FRET signals were measured after 6 h using a TECAN SPARK multimode microplate reader with the following settings: first excitation wavelength: 360 nm (bandwidth 35 nm), first emission wavelength: 485 nm (bandwidth 20 nm); second excitation wavelength: 360 nm (bandwidth 35 nm), second emission wavelength: 535 nm (bandwidth 25 nm); integration time: 200 μs; lag time: 100 μs; settle time: 0 ms.

LXRα = biological target: T3, LXRα (Homo sapiens, UniProt Q13133); test: LXRα-specific LXRE-GFP reporter assay in Hep3B cells (NR1H2 knockout); format: cell-based; conditions: 48h of treatment, GFP by FACS
T3 construct: To measure the activity of the remaining isoform under treatment; endogenous in cells; host or cells: Hep3B (NR1H2 knockout, LXRE-GFP reporter)
T3 sequence (Q13133 1-447): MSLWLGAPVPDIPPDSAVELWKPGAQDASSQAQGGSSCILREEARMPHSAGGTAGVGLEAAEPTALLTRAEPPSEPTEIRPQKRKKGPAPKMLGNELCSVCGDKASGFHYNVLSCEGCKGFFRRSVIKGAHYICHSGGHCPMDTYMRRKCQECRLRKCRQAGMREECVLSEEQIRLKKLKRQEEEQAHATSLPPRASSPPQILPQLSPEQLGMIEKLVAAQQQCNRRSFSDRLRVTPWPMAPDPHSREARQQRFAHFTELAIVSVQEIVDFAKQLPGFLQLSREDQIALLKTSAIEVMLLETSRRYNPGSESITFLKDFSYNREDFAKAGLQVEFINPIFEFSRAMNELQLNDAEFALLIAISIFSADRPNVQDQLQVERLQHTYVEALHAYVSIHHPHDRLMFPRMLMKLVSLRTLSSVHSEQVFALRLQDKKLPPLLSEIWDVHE

LXRβ LBD (GST) = biological target: T4, LXRβ LBD (GST) (Homo sapiens, UniProt P55055); test: Time-resolved LXR FRET assay (LanthaScreen TR-FRET LXRβ assay kit); format: biochemical
T4 construct: 5 nM LXRα LBD (GST); 10 nM LXRβ LBD (GST); purchased ThermoFisher Scientific PV4658
T4 sequence (P55055 222-460 limits assumed): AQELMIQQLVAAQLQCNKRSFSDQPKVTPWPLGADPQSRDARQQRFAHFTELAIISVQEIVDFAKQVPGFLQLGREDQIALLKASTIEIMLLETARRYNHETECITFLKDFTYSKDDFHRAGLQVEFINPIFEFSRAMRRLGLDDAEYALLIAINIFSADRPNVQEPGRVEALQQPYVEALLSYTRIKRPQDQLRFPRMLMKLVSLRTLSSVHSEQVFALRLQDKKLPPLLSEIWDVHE
Method: as §1

[1] = test system: Akt1^Myr; Myc^OE HCC organoids; test: Cell viability analysis in HCC organoids (CellTiter-Glo 3D); format: cell-based, murine; conditions: 5d, with 4 μM sorafenib
Description: Finally, we analyzed the efficacy of compound 40 in preclinical treatment studies in three-dimensional liver cancer organoid cultures. HCC organoids driven by myristoylated Akt1 and overexpressed Myc (Akt1^Myr; Myc^OE) were isolated from murine liver tumors and subjected to monotherapies of sorafenib, compound 40, or a combination thereof (Figure 7C). The therapeutic outcome was side-by-side compared with combinatorial therapies comprising the established agonists T0901317 (1) and GW3965 (2). […] Isolation of murine HCC organoid cultures was performed from liver tumors derived from C57BL/6 mice using established protocols.[26] The animal experiments were approved by committees of the regional authority of the state of Baden-Wuerttemberg (Regierungspraesidium Tuebingen, authorization number M15/18G) as appropriate. After digestion, the organoids were embedded in 100% Growth Factor Reduced (GFR) MatrigelTM (Corning) and cultured at 37 °C and 5% CO2 in HCC organoid medium supplemented with nicotinamide (10 mM), N-acetylcystein (1.25 mM), human HGF (50 ng/mL), human FGF-10 (100 ng/mL), human R-Spondin (0.5 μg/mL), forskolin (10 μM), A83- 01 (0.5 μM), murine Noggin (50 ng/mL), gastrin I (10 nM), human BMP-7 (25 ng/mL), human Wnt3a (100 ng/mL), B27 supplement (1×) and N2 supplement (1×). The cultures were split by mechanical dissociation every 3 to 4 days. […] Cell viability was determined after 5 days of treatment using the CellTiter-Glo 3D Cell Viability Assay Kit (Promega). Cell viability of Hep3B, AML12, and BNL CL.2 cells was determined after 5 days of treatment in white 96 well plates (Sarstedt) using the CellTiter-Glo 2.0 Cell Viability Assay Kit (Promega). […] The luminescence signal was measured using an […] M PLEX plate reader (Tecan) and the Tecan i-control software (v3.9.1). […]

Hep3B cells = test: Cell viability analysis in Hep3B cells (CellTiter-Glo); format: cell-based, human; conditions: 5 d, 2 μM
Method: To determine the therapeutic efficacy of compound 40 in HCC cells, we next tested its effect on Hep3B cell viability in combination with the DFG-out Raf inhibitor sorafenib (2 μM).
For organoid treatment studies, digestion of organoids was performed using TrypLE Express (Gibco) supplemented with 100 μg/mL DNaseI and 10.5 μM Y-27632 dihydrochloride (Invitrogen) at 37 °C, and afterward, single-cells were plated in white 96 well plates (Sarstedt) in a mixture of 10% Matrigel (Growth Factor Reduced (GFR) Matrigel, Corning) in culture medium. Cell viability was determined after 5 days of treatment using the CellTiter-Glo 3D Cell Viability Assay Kit (Promega). Cell viability of Hep3B, AML12, and BNL CL.2 cells was determined after 5 days of treatment in white 96 well plates (Sarstedt) using the CellTiter-Glo 2.0 Cell Viability Assay Kit (Promega). AML12 and BNL CL.2 cells were also obtained from the American Type Culture Collection. The luminescence signal was measured using an […] M PLEX plate reader (Tecan) and the Tecan i-control software (v3.9.1). Sodium oleate (Selleckchem) was dissolved in methanol and added to cells at a final concentration of 200 μM.

[2] = 5 nM LXRα LBD (GST), read after 6 h, R^2 of fit given, read-out: TR-FRET activity (EC50) LXRα
[3] = 10 nM LXRβ LBD (GST), read after 6 h, R^2 of fit given, read-out: TR-FRET activity (EC50) LXRβ
[4] = supplement list of compounds, LXRα, unit inferred, read-out: FRET activity a
[5] = supplement list of compounds, (LXRβ), unit inferred, read-out: FRET activity b
[6] = statement made for both isoforms

Compound | EC50 (LXRβ) | EC50 (LXRα LBD (GST); [2]) | EC50 (LXRα) | EC50 (LXRβ LBD (GST); [3]) | EC50 (LXRα LBD (GST); [4]) | EC50 (LXRβ LBD (GST); [5]) | other results
NC1CCN(c2ccc(NC3=C(c4ccccc4)C(=O)N(Cc4ccccc4)C3=O)cc2)CC1 [Compound 46, 3-((4-(4-Aminopiperidin-1-yl)phenyl)amino)-1-benzyl-4-phenyl-1H-pyrrole-2,5-dione] | 1250 nM | 630 nM | 1480 nM | 120 nM |  |  | 
CN1CCC(Nc2ccc(NC3=C(c4ccccc4)C(=O)N(Cc4ccccc4)C3=O)cc2)CC1 [Compound 48, 1-Benzyl-3-((4-((1-methylpiperidin-4-yl)amino)phenyl)amino)-4-phenyl-1H-pyrrole-2,5-dione] |  |  |  |  | 786 nM | 150 nM | 
O=C1CCN(c2ccc(NC3=C(c4ccccc4)C(=O)N(Cc4ccccc4)C3=O)cc2)CC1 [Compound 49, 1-Benzyl-3-((4-(4-oxopiperidin-1-yl)phenyl)amino)-4-phenyl-1H-pyrrole-2,5-dione] |  |  |  |  | 103 nM | 130 nM | 
O=C(O)Cc1cccc(OCCCN(Cc2cccc(C(F)(F)F)c2Cl)CC(c2ccccc2)c2ccccc2)c1 [GW3965 (2), reference compound] | 40 nM | 87 nM | 320 nM | 24 nM |  |  | therapeutic efficacy (cell viability) in combination with sorafenib [1]: dose-dependent response
O=S(=O)(c1ccccc1)N(CC(F)(F)F)c1ccc(C(O)(C(F)(F)F)C(F)(F)F)cc1 [T0901317 (1)] |  |  |  |  |  |  | therapeutic efficacy (cell viability) in combination with sorafenib [1]: dose-dependent response
CNC(=O)c1cc(Oc2ccc(NC(=O)Nc3ccc(Cl)c(C(F)(F)F)c3)cc2)ccn1 [sorafenib, reference compound] |  |  |  |  |  |  | therapeutic effect on cell viability, sorafenib monotherapy (Hep3B cells): only a low therapeutic effect

More lines, main results first:

EC50 (LXRβ) | EC50 (LXRα LBD (GST); [2]) | EC50 (LXRα) | EC50 (LXRβ LBD (GST); [3]) | EC50 (LXRα LBD (GST); [4]) | EC50 (LXRβ LBD (GST); [5]) | Compound | other results
 |  |  |  | 74 nM | 225 nM | O=C(c1ccc(NC2=C(c3ccccc3)C(=O)N(Cc3ccccc3)C2=O)cc1)N1CCCCC1 [Compound 50, 1-Benzyl-3-phenyl-4-((4-(piperidine-1-carbonyl)phenyl)amino)-1H-pyrrole-2,5-dione] | 
113 nM | 36 nM | 19 nM | 156 nM |  |  | CC(C)(C)N1C(=O)C(Nc2ccc(N3CCCCC3)cc2)=C(c2ccccc2)C1=O [Compound 51, 1-(tert-Butyl)-3-phenyl-4-((4-(piperidin-1-yl)phenyl)amino)-1H-pyrrole-2,5-dione] | 
 | > 3000 nM |  | > 3000 nM |  |  | O=C1NC(=O)C(c2ccccc2)=C1Nc1ccc(N2CCCCC2)cc1 [Compound 52, 3-Phenyl-4-((4-(piperidin-1-yl)phenyl)amino)-1H-pyrrole-2,5-dione] | TR-FRET activity on LXRα, in words (LXRα LBD (GST); [6]): no activity; TR-FRET activity on LXRβ, in words (LXRβ LBD (GST); [6]): no activity
248 nM | 154 nM | 99 nM | 180 nM |  |  | COc1ccc(NC2=C(c3ccccc3)C(=O)N(Cc3ccccc3)C2=O)cc1 [GSK3987 (3), 1-Benzyl-3-((4-methoxyphenyl)amino)-4-phenyl-1H-pyrrole-2,5-dione, reference compound] | 
